# Experimental data published in patent US7045152B2, “Treating pulmonary disorders with gaseous agent causing repletion of GSNO” (Duke University, priority 1999, dated 2006).
# What was measured:
# Format in all cases: in vivo, human
# cystic fibrosis = assay: Inhaled gas / nebulized treatment of patients with cystic fibrosis (Examples IV, IX, XI, XII)
# ARDS = assay: Inhaled gas treatment of patients with ARDS (Examples II, VI, VII, VIII)
# asthma = assay: Inhaled gas treatment of patients with asthma (Examples III, X); conditions: Example III; child, status asthmaticus, intubated; 20 ppm in nitrogen
smiles,measurement,setting,value
"[Na+].[Na+].[O-][N+]([O-])=NO [Angeli's salt, reference compound]",sputum production,"cystic fibrosis; Example XI, 100 mM in 3 cc normal saline nebulized Q 6 hours, over two days, after HNO",decreases in sputum production
CCON=O [Ethylnitrite],GSNO levels in the airway lining fluid,"cystic fibrosis; human, in vivo",increase
same,blood gases,"cystic fibrosis; human, in vivo",improved
same,pulmonary hemorrhage,"cystic fibrosis; human, in vivo",the hemorrhage stops
same,state of health,"cystic fibrosis; human, in vivo",reverts to their normal state of health
same,PaO2,"ARDS; Example VII, ENO in nitrogen started again (arrow D), from 43",49 mm Hg
same,PaO2,"ARDS; Example VII, ENO stopped (arrow C), from 46",43 mm Hg
same,blood pressure,"ARDS; Example VII, hemodynamically unstable patient, ENO 40 ppm in nitrogen",stabilized
same,PaO2,"ARDS; Example VII, over the following 12 hours on ENO, progressively less responsive",37 millimeters of mercury
same,PaO2,"ARDS; Example VII, person, viral pneumonia progressed to ARDS, initial ENO 40 ppm in nitrogen (arrow A), from 39 on 100% oxygen",48 mm Hg
same,PaO2,"ARDS; Example VIII, person, ARDS, inhaled 10 ppm in nitrogen for three days, from 50",40 mm Hg
CSN=O [Methylthionitrite],PaO2,"ARDS; Example VI, person, AML, ARDS, intubated, 20 parts per million oxygen, from PO2 40 on 100% oxygen",70 mm Hg
"CC(=O)N[C@@H](CS)C(=O)O [N-acetylcysteine, reference compound]",PaO2,"ARDS; Example VII, nebulized N-acetylcysteine added to ENO (arrow B), from 37",46 mm Hg
COS(=O)N=O (centres unmarked) [methylnitrososulfinate],airway pressures,asthma,airway pressures decrease
